Source: ChEMBL document CHEMBL1201862, “PubChem BioAssay data set” (2004)
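Dose response: 5 concentrations. Exposure: 48 h. Format: 96-well plates. Endpoint: linear interpolation; highest concentration if not reached. GI50 is the concentration that inhibits growth by half.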 Activity calls are given as the source filed them. Rule as the data show it: active = GI50 up to about 1.1 µM and inactive = higher.

Key:
Experiment in all cases: inhibition of tumour cell growth, NCI panel, 48 h
A549 = tested on: A549
MCF7 = tested on: MCF7
CAKI-1 = tested on: CAKI-1
NCI/ADR-RES = tested on: NCI/ADR-RES
TK-10 = tested on: TK-10
RPMI-8226 = tested on: RPMI-8226
SK-MEL-5 = tested on: SK-MEL-5
M14 = tested on: M14
NCI-H522 = tested on: NCI-H522
SNB-75 = tested on: SNB-75
OVCAR-5 = tested on: OVCAR-5
SNB-19 = tested on: SNB-19
T47D = tested on: T47D
UACC-257 = tested on: UACC-257
HOP-62 = tested on: HOP-62
LOX IMVI = tested on: LOX IMVI
SW-620 = tested on: SW-620
CCRF-CEM = tested on: CCRF-CEM
EKVX = tested on: EKVX
HOP-92 = tested on: HOP-92

Measured: GI50

COc1ccc2oc(=N)c(C(=O)Nc3ccccc3)cc2c1
inactive: A549 34.3 µM | MCF7 12.8 µM | CAKI-1 5.61 µM | NCI/ADR-RES 16.9 µM | TK-10 57.5 µM | RPMI-8226 15.7 µM | SK-MEL-5 25.8 µM | M14 38.1 µM | NCI-H522 2.58 µM | SNB-75 10.4 µM | OVCAR-5 36.7 µM | SNB-19 25.2 µM | T47D 4.41 µM | UACC-257 62.5 µM | HOP-62 15.8 µM | LOX IMVI 31.6 µM | SW-620 22 µM | CCRF-CEM 7.23 µM | EKVX 26.8 µM

Cc1ccsc1/C=N/Nc1cc(C)c2cccc(C)c2n1
inactive: A549 > 100 µM | MCF7 2.75 µM | CAKI-1 > 100 µM | HOP-92 > 100 µM | NCI/ADR-RES > 100 µM | TK-10 > 100 µM | M14 > 100 µM | SNB-75 > 100 µM | OVCAR-5 > 100 µM | SNB-19 > 100 µM | T47D > 100 µM | UACC-257 > 100 µM | HOP-62 > 100 µM | SW-620 > 100 µM | EKVX > 100 µM

O=C(O[C@H](/C=C/c1ccccc1)P1(=O)N(Cc2ccccc2)[C@@H]2CCCC[C@H]2N1Cc1ccccc1)c1ccccc1
inactive: A549 3.66 µM | MCF7 3.63 µM | CAKI-1 2.16 µM | HOP-92 1.91 µM | NCI/ADR-RES 3.18 µM | TK-10 38.9 µM | RPMI-8226 2.33 µM | SK-MEL-5 1.86 µM | M14 4.11 µM | NCI-H522 3.95 µM | OVCAR-5 4.17 µM | SNB-19 6.5 µM | UACC-257 7.87 µM | HOP-62 5.38 µM | LOX IMVI 3.41 µM | SW-620 3.57 µM | CCRF-CEM 2.74 µM | EKVX 3.96 µM
active: T47D 0.875 µM

O=C(Cc1nc2ccc(C(=O)c3ccccc3)cc2nc1O)C(=O)Nc1ccccc1[N+](=O)[O-]
inactive: A549 > 100 µM | MCF7 50 µM | CAKI-1 34.8 µM | HOP-92 65.9 µM | NCI/ADR-RES 45.1 µM | TK-10 98.9 µM | RPMI-8226 34.1 µM | SK-MEL-5 46 µM | M14 92 µM | NCI-H522 34.4 µM | SNB-75 26.2 µM | OVCAR-5 > 100 µM | T47D 54.3 µM | UACC-257 > 100 µM | LOX IMVI 67.9 µM | SW-620 53.7 µM | CCRF-CEM 50.9 µM | EKVX 89.7 µM

OC1(c2ccc(Cl)cc2)c2ccc(CN3CCCC3)cc2C2=NCCN21 (centres undefined)
inactive: A549 17.1 µM | MCF7 16.8 µM | CAKI-1 16.4 µM | HOP-92 2.53 µM | NCI/ADR-RES > 100 µM | TK-10 4.98 µM | RPMI-8226 10.2 µM | SK-MEL-5 10.5 µM | M14 3.66 µM | SNB-75 3.16 µM | OVCAR-5 16.7 µM | SNB-19 16.6 µM | T47D 18.5 µM | UACC-257 12.5 µM | HOP-62 15.6 µM | LOX IMVI 13.9 µM | SW-620 13.3 µM | CCRF-CEM 12.2 µM | EKVX 15.2 µM

O=c1ccn(C/C=C/c2ccccc2)c(=S)n1C/C=C/c1ccccc1
inactive: A549 17.7 µM | MCF7 18.3 µM | CAKI-1 > 100 µM | HOP-92 > 100 µM | NCI/ADR-RES > 100 µM | TK-10 > 100 µM | SK-MEL-5 35.2 µM | M14 73.6 µM | NCI-H522 67.8 µM | SNB-75 > 100 µM | OVCAR-5 > 100 µM | SNB-19 > 100 µM | T47D 20.9 µM | UACC-257 32.8 µM | HOP-62 > 100 µM | LOX IMVI 28.6 µM | SW-620 > 100 µM | CCRF-CEM 18.4 µM | EKVX 66.8 µM

COc1ccccc1C[C@@H]1OC2(C=CC(=O)CC2SC(=O)c2ccccc2)O[C@H]1Cc1ccccc1OC (some centres undefined)
inactive: A549 2.9 µM | CAKI-1 1.79 µM | HOP-92 1.64 µM | NCI/ADR-RES 1.46 µM | TK-10 1.54 µM | SK-MEL-5 1.62 µM | M14 1.56 µM | SNB-75 1.78 µM | OVCAR-5 1.19 µM | SNB-19 1.91 µM | T47D 1.6 µM | UACC-257 1.51 µM | HOP-62 1.35 µM
active: MCF7 0.363 µM | RPMI-8226 0.3 µM | LOX IMVI 0.582 µM | SW-620 0.324 µM | CCRF-CEM 0.294 µM

C=C(CO[Si](C)(C)C(C)(C)C)C(C)=O
active: CCRF-CEM 0.678 µM
inactive: A549 > 100 µM | MCF7 23.3 µM | CAKI-1 22.3 µM | NCI/ADR-RES 26.9 µM | TK-10 > 100 µM | RPMI-8226 4.88 µM | SK-MEL-5 14.6 µM | M14 13.1 µM | NCI-H522 3.78 µM | SNB-75 20 µM | OVCAR-5 31 µM | SNB-19 > 86.1 µM | T47D 21.6 µM | UACC-257 18 µM | HOP-62 > 100 µM | LOX IMVI 4.94 µM | SW-620 8.15 µM | EKVX > 100 µM

CC(C)C1OC23CCCCC2C(C#N)(C#N)C1(C#N)C(=N)O3 (centres undefined)
inactive: A549 71.8 µM | MCF7 12.1 µM | CAKI-1 8.34 µM | HOP-92 16.5 µM | NCI/ADR-RES 34.8 µM | TK-10 19.9 µM | SK-MEL-5 16.8 µM | M14 12.8 µM | SNB-75 28.4 µM | OVCAR-5 20.1 µM | SNB-19 34.3 µM | T47D 17.6 µM | UACC-257 20.6 µM | LOX IMVI 20.1 µM | SW-620 13.7 µM | CCRF-CEM 5.56 µM | EKVX 27.5 µM

Cc1n[nH]c(=O)c2cc(-c3ccccc3)[nH]c12
inactive: A549 49 µM | MCF7 30.8 µM | CAKI-1 > 100 µM | HOP-92 > 100 µM | NCI/ADR-RES 57.8 µM | TK-10 59.3 µM | RPMI-8226 37.6 µM | SK-MEL-5 41.6 µM | M14 53.3 µM | SNB-75 39.2 µM | OVCAR-5 50.7 µM | SNB-19 > 100 µM | T47D 27.5 µM | UACC-257 49.8 µM | HOP-62 > 100 µM | LOX IMVI 58.7 µM | SW-620 > 100 µM | CCRF-CEM 48.2 µM | EKVX 36.6 µM

COc1cc2c(cc1OC)C13CCN4CC5=CCOC6CC(=O)N2C1C6C5CC43O (centres undefined)
inactive: A549 > 100 µM | MCF7 > 100 µM | CAKI-1 > 100 µM | HOP-92 > 100 µM | NCI/ADR-RES > 100 µM | TK-10 > 100 µM | RPMI-8226 > 100 µM | SK-MEL-5 > 100 µM | M14 > 100 µM | NCI-H522 > 100 µM | SNB-75 > 100 µM | OVCAR-5 > 100 µM | SNB-19 > 100 µM | T47D > 100 µM | UACC-257 > 100 µM | LOX IMVI > 100 µM | SW-620 > 100 µM | CCRF-CEM > 100 µM | EKVX > 100 µM

O=C1/C(=C2\SCC(=O)N2c2ccccc2)SC(=S)N1c1ccccc1
inactive: A549 31 µM | MCF7 36.8 µM | CAKI-1 21.1 µM | HOP-92 23.3 µM | NCI/ADR-RES 27 µM | TK-10 28.7 µM | RPMI-8226 36.3 µM | SK-MEL-5 46.7 µM | M14 > 100 µM | OVCAR-5 > 100 µM | SNB-19 50.9 µM | T47D 51.2 µM | UACC-257 42.8 µM | LOX IMVI 32.7 µM | SW-620 45.1 µM | CCRF-CEM 37.2 µM | EKVX 30.3 µM

CCOC(=O)Nn1c(C)nnc1-c1ccccc1
inactive: A549 > 100 µM | MCF7 > 100 µM | CAKI-1 > 100 µM | HOP-92 > 100 µM | NCI/ADR-RES > 100 µM | TK-10 > 100 µM | RPMI-8226 > 100 µM | SK-MEL-5 > 100 µM | M14 > 100 µM | NCI-H522 > 100 µM | OVCAR-5 > 100 µM | SNB-19 > 100 µM | T47D > 100 µM | UACC-257 > 100 µM | LOX IMVI > 100 µM | SW-620 > 100 µM | CCRF-CEM > 100 µM | EKVX > 100 µM

CC(C)(C)NC1=NC(C(F)(F)F)(C(F)(F)F)NC(=O)N1
inactive: A549 35.1 µM | MCF7 37.8 µM | CAKI-1 46.1 µM | HOP-92 20 µM | NCI/ADR-RES 61 µM | TK-10 67.8 µM | RPMI-8226 36.9 µM | SK-MEL-5 24.8 µM | M14 44.5 µM | SNB-75 75.2 µM | OVCAR-5 > 100 µM | SNB-19 67.3 µM | T47D 28.3 µM | UACC-257 54.2 µM | HOP-62 > 100 µM | LOX IMVI 53 µM | SW-620 > 100 µM | CCRF-CEM 31.2 µM | EKVX 84.1 µM

CC(C)OC(=O)Nc1cccc(Cl)c1 [CHLORPROPHAM]
inactive: A549 > 100 µM | MCF7 > 100 µM | CAKI-1 > 100 µM | HOP-92 > 100 µM | NCI/ADR-RES 91.4 µM | TK-10 > 100 µM | RPMI-8226 > 100 µM | SK-MEL-5 > 100 µM | M14 > 100 µM | SNB-75 40.7 µM | OVCAR-5 > 100 µM | SNB-19 > 100 µM | T47D 50.4 µM | UACC-257 > 100 µM | HOP-62 > 100 µM | LOX IMVI > 100 µM | SW-620 > 100 µM | CCRF-CEM > 100 µM | EKVX 63.1 µM
